Experimental data taken from patent US4362743A, “Antibacterial monic acid esters” (Beecham Group Limited, priority 1980, dated 1982).
In brackets after ≈: the same amount, converted by molar mass. Like-named read-outs stand apart in the source and are kept apart here.

Assays:
Sarcina lutea 8340 = experiment: Human bacteria MIC; assay type: cell-based; details: Micrococcus luteus; Sarcina lutea 8340; nutrient agar, 5% chocolated horse blood, 18 hours 37° C.; read-out: M.I.C.
Protocol: The values were determined by serial dilutions in nutrient agar with 5% chocolated horse blood after incubations for 18 hours at 37° C.

[1] = system: M. suipneumoniae J2206/183b; experiment: Anti-mycoplasmal activity in vitro MIC; assay type: cell-based; details: Mesomycoplasma hyopneumoniae, 144 h
M. suipneumoniae JF 435 = experiment: Anti-mycoplasmal activity in vitro MIC; assay type: cell-based; details: Mesomycoplasma hyopneumoniae, JF435, 144 h
M. suipneumoniae MS16 = experiment: Anti-mycoplasmal activity in vitro MIC; assay type: cell-based; details: Mesomycoplasma hyopneumoniae
M. pneumoniae ATCC 15492 = experiment: Anti-mycoplasmal activity in vitro MIC; assay type: cell-based; details: Mycoplasmoides pneumoniae, ATCC15492, 144 h
M. hyorhinis ATCC 23234 = experiment: Anti-mycoplasmal activity in vitro MIC; assay type: cell-based; details: Mesomycoplasma hyorhinis, ATCC23234, 144 h
[2] = system: M. hyosynoviae ATCC 25591; experiment: Anti-mycoplasmal activity in vitro MIC; assay type: cell-based; details: 144 h
[3] = Serum binding by ultrafiltration; assay type: in vitro ADME; details: pig, porcine serum, 8 mcg/ml, read-out: % bound to pig serum (converted)
Protocol: Serum binding was assessed by ultrafiltration of porcine serum containing compounds at 8 mcg/ml, and through an Amicon CF50A ultrafiltration cone. Separation of ultrafiltrate was achieved by centrifugation. Unbound concentrations of compound were measured in the ultrafiltrate by microbiological assay (B. subtilis ATCC 6633) against standards prepared in saline.

M. suipneumoniae UCD 1 = experiment: Anti-mycoplasmal activity in vitro MIC; assay type: cell-based; details: Mesomycoplasma hyopneumoniae, UCD1, 144 h
[4] = system: M. suipneumoniae PW/C/210; experiment: Anti-mycoplasmal activity in vitro MIC; assay type: cell-based; details: Mesomycoplasma hyopneumoniae, 144 h
S. typhimurium S18 = experiment: Veterinary bacteria MIC; assay type: cell-based; details: Salmonella enterica; S. typhimurium S18; Diagnostic Sensitivity Test Agar, 18 hours 37° C.; read-out: M.I.C.
Protocol: (§1) The values were determined using a two fold serial dilutions in Diagnostic Sensitivity Test Agar with an inoculum of 10^4 organisms and incubation for 18 hours at 37° C.

Strep. agalactiae SPA1 = experiment: Veterinary bacteria MIC; assay type: cell-based; details: Streptococcus agalactiae, Diagnostic Sensitivity Test Agar, 18 hours 37° C.
Protocol: as §1

Strep. uberis SPU1 = experiment: Veterinary bacteria MIC; assay type: cell-based; details: Streptococcus uberis, Diagnostic Sensitivity Test Agar, 18 hours 37° C.
Protocol: as §1

[5] = system: Strep. suis (Group D) SPS11; experiment: Veterinary bacteria MIC; assay type: cell-based; details: Streptococcus suis; Strep. suis (Group D) SPS11; Diagnostic Sensitivity Test Agar, 18 hours 37° C.; read-out: M.I.C.
Protocol: as §1

E. coli NCTC 10418 = experiment: Veterinary bacteria MIC; assay type: cell-based; details: Escherichia coli, NCTC10418; E. coli NCTC 10418; Diagnostic Sensitivity Test Agar, 18 hours 37° C.; read-out: M.I.C.
Protocol: as §1

[6] = system: Erysipelothrix rhusiopathiae NCTC 8163; experiment: Veterinary bacteria MIC; assay type: cell-based; details: NCTC8163; Erysipelothrix rhusiopathiae NCTC 8163; Diagnostic Sensitivity Test Agar, 18 hours 37° C.; read-out: M.I.C.
Protocol: as §1

Bord. bronchiseptica B08 = experiment: Veterinary bacteria MIC; assay type: cell-based; details: Bordetella bronchiseptica; Bord. bronchiseptica B08; Diagnostic Sensitivity Test Agar, 18 hours 37° C.; read-out: M.I.C.
Protocol: as §1

Past. multocida PA2 = experiment: Veterinary bacteria MIC; assay type: cell-based; details: Pasteurella multocida
Protocol: as §1

[7] = system: Staph. aureus 152 (pen. sens); experiment: Veterinary bacteria MIC; assay type: cell-based; details: Staphylococcus aureus, Diagnostic Sensitivity Test Agar, 18 hours 37° C.
Protocol: as §1

[8] = system: Corynebacterium pyogenes CY1; experiment: Veterinary bacteria MIC; assay type: cell-based; details: Trueperella pyogenes; Corynebacterium pyogenes CY1; Diagnostic Sensitivity Test Agar, 18 hours 37° C.; read-out: M.I.C.
Protocol: as §1

E. coli El = experiment: Veterinary bacteria MIC; assay type: cell-based; details: Escherichia coli; E. coli El; Diagnostic Sensitivity Test Agar, 18 hours 37° C.; read-out: M.I.C.
Protocol: as §1

Staph. aureus Oxford = experiment: Veterinary bacteria MIC; assay type: cell-based; details: Staphylococcus aureus, Diagnostic Sensitivity Test Agar, 18 hours 37° C.
Protocol: as §1

[9] = system: Staph. aureus B4 (pen. resistant); experiment: Veterinary bacteria MIC; assay type: cell-based; details: Staphylococcus aureus, Diagnostic Sensitivity Test Agar, 18 hours 37° C.
Protocol: as §1

S. dublin S7 = experiment: Veterinary bacteria MIC; assay type: cell-based; details: Salmonella enterica; S. dublin S7; Diagnostic Sensitivity Test Agar, 18 hours 37° C.; read-out: M.I.C.
Protocol: as §1

Past. haemolytica PA5 = experiment: Veterinary bacteria MIC; assay type: cell-based; details: Mannheimia haemolytica; Past. haemolytica PA5; Diagnostic Sensitivity Test Agar, 18 hours 37° C.; read-out: M.I.C.
Protocol: as §1

Bord. brochiasetpica B09 = experiment: Veterinary bacteria MIC; assay type: cell-based; details: Diagnostic Sensitivity Test Agar, 18 hours 37° C.
Protocol: as §1

Strep. dysgalactiae SPD1 = experiment: Veterinary bacteria MIC; assay type: cell-based; details: Streptococcus dysgalactiae, Diagnostic Sensitivity Test Agar, 18 hours 37° C.
Protocol: as §1

Past. multocida PA1 = experiment: Veterinary bacteria MIC; assay type: cell-based; details: Pasteurella multocida, Diagnostic Sensitivity Test Agar, 18 hours 37° C.
Protocol: as §1

M. gallisepticum S6 = experiment: Anti-mycoplasmal activity in vitro MIC; assay type: cell-based; details: Mycoplasmoides gallisepticum

| SMILES | MIC (Sarcina lutea 8340) [µg/mL] | fraction unbound [3] | MIC (S. typhimurium S18) [µg/mL] | MIC (Strep. agalactiae SPA1) [µg/mL] | MIC (Strep. uberis SPU1) [µg/mL] | MIC [5] [µg/mL] | MIC (E. coli NCTC 10418) [µg/mL] | MIC [6] [µg/mL] | MIC (Bord. bronchiseptica B08) [µg/mL] | MIC [7] [µg/mL] | MIC [8] [µg/mL] | MIC (E. coli El) [µg/mL] | MIC (Staph. aureus Oxford) [µg/mL] | MIC [9] [µg/mL] | MIC (S. dublin S7) [µg/mL] | MIC (Past. haemolytica PA5) [µg/mL] | MIC (Bord. brochiasetpica B09) [µg/mL] | MIC (Strep. dysgalactiae SPD1) [µg/mL] | MIC (Past. multocida PA1) [µg/mL] | further results |
| --- | --- | --- | --- | --- | --- | --- | --- | --- | --- | --- | --- | --- | --- | --- | --- | --- | --- | --- | --- | --- |
| C/C(=C\C(=O)OCCCC(=NO)c1cccs1)C[C@@H]1OC[C@H](C[C@@H]2O[C@H]2[C@@H](C)[C@H](C)O)[C@@H](O)[C@H]1O [Example 4, 4-Hydroxyimino-4-(2-thienyl)butyl monate A] | > 100 | < 0.039 | > 80 | 0.625 (≈ 1.22 µM) | 0.312 (≈ 0.61 µM) | 10 (≈ 19.5 µM) | > 80 | 20 (≈ 39.1 µM) | > 80 | 0.312 (≈ 0.61 µM) | > 80 | > 80 | 0.312 (≈ 0.61 µM) | 0.625 (≈ 1.22 µM) | > 80 | 20 (≈ 39.1 µM) | 5 (≈ 9.77 µM) | 0.625 (≈ 1.22 µM) | 2.5 (≈ 4.89 µM) | MIC ([1]; J2206/183B): 0.5 µg/mL (≈ 0.977 µM); MIC (M. suipneumoniae JF 435): 0.5 µg/mL (≈ 0.977 µM); MIC (M. suipneumoniae MS16; 144 h, M. suipneumoniae MS16, Friis broth, 0.9% agarose, 6 days 37° C., read-out: M.I.C.): 0.25 µg/mL (≈ 0.489 µM); MIC (M. pneumoniae ATCC 15492; M. pneumoniae ATCC 15492, Friis broth, 0.9% agarose, 6 days 37° C., read-out: M.I.C.): 2.5 µg/mL (≈ 4.89 µM); MIC (M. hyorhinis ATCC 23234; M. hyorhinis ATCC 23234, Friis broth, 0.9% agarose, 6 days 37° C., read-out: M.I.C.): 0.25 µg/mL (≈ 0.489 µM); MIC ([2]; M. hyosynoviae ATCC 25591, Friis broth, 0.9% agarose, 6 days 37° C., read-out: M.I.C.): 0.25 µg/mL (≈ 0.489 µM); MIC (M. suipneumoniae UCD 1): 0.5 µg/mL (≈ 0.977 µM); MIC ([4]; M. suipneumoniae PW/C/210, Friis broth, 0.9% agarose, 6 days 37° C., read-out: M.I.C.): 0.25 µg/mL (≈ 0.489 µM); MIC (Past. multocida PA2; PA2, 18 h): 0.156 µg/mL (≈ 0.305 µM); MIC (M. gallisepticum S6; 144 h, M. gallisepticum S6, Friis broth, 0.9% agarose, 6 days 37° C., read-out: M.I.C.): 10 µg/mL (≈ 19.5 µM) |
| C/C(=C\C(=O)OC1CCC(=NO)CC1)C[C@@H]1OC[C@H](C[C@@H]2O[C@H]2[C@@H](C)[C@H](C)O)[C@@H](O)[C@H]1O (stereo partly shown) [Example 3, 4-Hydroxyiminocyclohexyl monate A] | > 100 | 0.355 | > 80 | 0.625 (≈ 1.37 µM) | 0.156 (≈ 0.342 µM) | 2.5 (≈ 5.49 µM) | > 80 | 10 (≈ 22 µM) | > 80 | 1.25 (≈ 2.74 µM) | > 80 | > 80 | 1.25 (≈ 2.74 µM) | 2.5 (≈ 5.49 µM) | > 80 | 5 (≈ 11 µM) | 20 (≈ 43.9 µM) | 0.312 (≈ 0.685 µM) | 1.25 (≈ 2.74 µM) | MIC ([1]; M. suipneumoniae J2206/183b, Friis broth, 0.9% agarose, 6 days 37° C., read-out: M.I.C.): 0.5 µg/mL (≈ 1.1 µM); MIC (M. suipneumoniae JF 435; M. suipneumoniae JF 435, Friis broth, 0.9% agarose, 6 days 37° C., read-out: M.I.C.): 0.5 µg/mL (≈ 1.1 µM); MIC (M. suipneumoniae MS16; MS16, 144 h): 0.25 µg/mL (≈ 0.549 µM); MIC (M. pneumoniae ATCC 15492): 1 µg/mL (≈ 2.2 µM); MIC (M. hyorhinis ATCC 23234): 0.25 µg/mL (≈ 0.549 µM); MIC [2]: 0.1 µg/mL (≈ 0.22 µM); MIC (M. suipneumoniae UCD 1; M. suipneumoniae UCD 1, Friis broth, 0.9% agarose, 6 days 37° C., read-out: M.I.C.): 0.5 µg/mL (≈ 1.1 µM); MIC [4]: 0.25 µg/mL (≈ 0.549 µM); MIC (Past. multocida PA2; Past. multocida PA2, Diagnostic Sensitivity Test Agar, 18 hours 37° C., read-out: M.I.C.): 0.312 µg/mL (≈ 0.685 µM); MIC (M. gallisepticum S6; S6, 144 h): 5 µg/mL (≈ 11 µM) |
